# Experimental data from publication PMC3177597 (Bioorganic & medicinal chemistry letters, 2009).
# How the values were obtained:
# [1] = test system: mGluRs 1, 2, 3, 4, 7 and 8; assay: Selectivity versus other mGluRs
# [2] = target: MPEP allosteric binding site on mGluR5 (Rattus norvegicus, UniProt P31424); assay: Displacement of [3H]3-methoxy-5-
# Sequence of MPEP allosteric binding site on mGluR5 (P31424 21-1203): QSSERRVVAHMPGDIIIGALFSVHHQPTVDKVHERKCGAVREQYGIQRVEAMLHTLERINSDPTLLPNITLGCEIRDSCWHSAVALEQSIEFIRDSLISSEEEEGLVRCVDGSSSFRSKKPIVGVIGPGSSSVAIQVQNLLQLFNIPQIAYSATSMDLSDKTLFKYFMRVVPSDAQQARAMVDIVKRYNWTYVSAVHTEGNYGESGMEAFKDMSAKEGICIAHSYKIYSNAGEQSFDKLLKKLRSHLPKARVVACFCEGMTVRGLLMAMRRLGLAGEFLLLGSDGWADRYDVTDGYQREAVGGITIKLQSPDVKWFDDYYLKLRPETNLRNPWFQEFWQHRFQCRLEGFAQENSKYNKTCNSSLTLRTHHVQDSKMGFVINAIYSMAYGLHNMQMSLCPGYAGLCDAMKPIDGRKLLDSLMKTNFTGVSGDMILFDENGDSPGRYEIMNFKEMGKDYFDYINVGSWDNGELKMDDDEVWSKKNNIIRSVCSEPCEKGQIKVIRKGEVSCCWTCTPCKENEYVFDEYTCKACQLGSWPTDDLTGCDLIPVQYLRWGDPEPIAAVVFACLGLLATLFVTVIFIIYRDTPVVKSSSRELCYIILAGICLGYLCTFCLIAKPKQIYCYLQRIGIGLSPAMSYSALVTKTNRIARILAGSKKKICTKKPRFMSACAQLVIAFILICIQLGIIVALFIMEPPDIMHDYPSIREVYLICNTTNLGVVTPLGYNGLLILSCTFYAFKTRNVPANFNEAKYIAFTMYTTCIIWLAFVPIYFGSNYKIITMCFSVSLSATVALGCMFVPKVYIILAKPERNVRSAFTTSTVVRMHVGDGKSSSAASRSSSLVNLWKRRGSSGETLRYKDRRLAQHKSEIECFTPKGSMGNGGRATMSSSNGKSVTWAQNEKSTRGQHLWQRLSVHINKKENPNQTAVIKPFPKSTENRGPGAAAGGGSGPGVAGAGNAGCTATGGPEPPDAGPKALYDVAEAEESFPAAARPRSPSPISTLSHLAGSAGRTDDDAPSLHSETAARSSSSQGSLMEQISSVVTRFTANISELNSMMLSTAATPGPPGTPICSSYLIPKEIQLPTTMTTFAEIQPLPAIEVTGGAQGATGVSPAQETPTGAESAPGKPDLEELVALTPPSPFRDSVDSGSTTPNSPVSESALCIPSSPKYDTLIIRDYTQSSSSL
SMILES,"selectivity versus mGluRs 1, 2, 3, 4, 7 and 8 [1]",Ki [2]
COc1ccccc1C(=O)Nc1cccc(NC(=O)c2cccc(Cl)c2)c1 [compound 8],selective,1.1 µM
"O=C(Nc1ccccc1O)c1cccc(N2C(=O)c3ccccc3C2=O)c1 [compound 9, 3-(phthalimidyl)-N-(2-hydroxyphenyl)benzamide]",selective,0.319 µM
